Results on 10 molecules are retold here after patent publication US10023592B2, “Bromodomain inhibitors” (Celgene Quanticel Research, Inc., priority 2013, dated 2018).

Test [1] relates to Raji, human Burkitts lymphoma cells. The test can be described thus: Cell-MTS proliferation assay, Raji. Conditions: Homo sapiens, 168 hr. The format is cell-based. In short, it runs like this:
(§1)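 Seed: Raji 15,000, HL-60 5,000, NCI-H460 3,000 cells/96-well. +24 hr: 11-pt compound dilution, 100 μM–2.0 nM final. 7 d culture, MTS reagent, read OD490; IC50 vs DMSO, background subtracted.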

In test [2] the test system is NCI-H460, human non-small cell lung cancer cells. The test can be described thus: Cell-MTS proliferation assay, NCI-H460. As to conditions: Homo sapiens, 168 hr. The format is cell-based. In outline: as §1
Background: Tetrazolium assays rely on reduction of a dye to a coloured formazan, in cell work by metabolically active cells.

In test [3] the test system is HL-60, human proleukemia cells. In words: Cell-MTS proliferation assay, HL-60. As to conditions: Homo sapiens, 168 hr. The format is cell-based. In outline: as §1
In test [4] the target is BRD4(BD1) (Homo sapiens (Human), UniProt O60885). The test can be described thus: In vitro enzyme inhibition assay (BRD4 AlphaScreen). The format is binding. In outline:
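His-tagged BRD4 tested by AlphaScreen for binding of biotinylated H4K5/8/12/16-tetraacetyl peptide. After 20 min at room temperature, streptavidin donor and nickel chelate acceptor beads added (5 μg/mL final each). IC50 determined.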
A general note: Bead proximity is the source of the signal in Alpha formats.

Where [5] appears, read: Raji, Cell-MTS, class symbols A/B/C.
[6] abbreviates: NCI-H460, Cell-MTS, class symbols A/B/C.
[7] abbreviates: HL-60, Cell-MTS, class symbols A/B/C.
[8] abbreviates: NCI-H460, Cell-MTS proliferation.
Setting [9] is: in vitro enzyme inhibition assay.

As a reminder, the IC50 is the concentration that inhibits the measured activity by half. `CCS(=O)(=O)Nc1cc(-c2cn(C)c(=O)c3ccc(-c4cnn(C)c4)cc23)c(OC)cc1F` [Example 86, N-[2-fluoro-4-methoxy-5-[2-methyl-6-(1-methylpyrazol-4-yl)-1-oxoisoquinolin-4-yl]phenyl]ethanesulfonamide]: the IC50 was less than 500 nM in test [1] (setting [5]), 0.5 to 5 µM in test [2] (setting [6]), less than 500 nM in test [3] (setting [7]) and less than 500 nM in test [4] (class symbols A/B/C).
Regarding `Cn1cc(-c2cc(OCc3ccccc3)cc(S(C)(=O)=O)c2)c2ccoc2c1=O` [Example 349, 6-methyl-4-(3-methylsulfonyl-5-phenylmethoxyphenyl)furo[2,3-c]pyridin-7-one], the IC50 in test [1] (Raji, Cell-MTS proliferation) is less than 500 nM; in test [2] (setting [8]), more than 5 µM; in test [3] (HL-60, Cell-MTS proliferation), less than 500 nM; in test [4] (setting [9]), less than 500 nM.
As to `Cn1cc(-c2cc(S(C)(=O)=O)ccc2OCC2CC2)cc(Oc2ccccc2)c1=O` [Example 295, 5-[2-(cyclopropylmethoxy)-5-methylsulfonylphenyl]-1-methyl-3-phenoxypyridin-2-one], the IC50 in test [1] (Raji, Cell-MTS proliferation) was 500 to 5000 nM; in test [2] (setting [8]), 0.5 to 5 µM; in test [3] (HL-60, Cell-MTS proliferation), 500 to 5000 nM; in test [4] (setting [9]), less than 500 nM.
On to `Cn1cc(-c2nc(NS(C)(=O)=O)ncc2Oc2ccc(F)cc2F)c2c(c1=O)CCCC2` [Example 172, N-[5-(2,4-difluorophenoxy)-4-(2-methyl-1-oxo-5,6,7,8-tetrahydroisoquinolin-4-yl)pyrimidin-2-yl]methanesulfonamide], for which the IC50 is 500 to 5000 nM in test [1] (Raji, Cell-MTS proliferation); more than 5 µM in test [2] (setting [8]); 500 to 5000 nM in test [3] (HL-60, Cell-MTS proliferation); less than 500 nM in test [4] (setting [9]).
In the case of `CC#CCOc1ccc(S(C)(=O)=O)cc1-c1cc(C)c(=O)n(C)c1` [Example 388, 5-(2-but-2-ynoxy-5-methylsulfonylphenyl)-1,3-dimethylpyridin-2-one], the IC50 was less than 500 nM in test [1] (Cell-MTS proliferation, Raji cells); more than 5 µM in test [2] (Cell-MTS proliferation, NCI-H460 cells); less than 500 nM in test [3] (Cell-MTS proliferation, HL-60 cells); less than 500 nM in test [4] (setting [9]).
For the molecule `Cc1cc(-c2cc(S(C)(=O)=O)ccc2OCC2CC2)cn(CC2CC2)c1=O` [Example 242, 5-[2-(cyclopropylmethoxy)-5-methylsulfonylphenyl]-1-(cyclopropylmethyl)-3-methylpyridin-2-one], the half-maximal inhibitory concentration (IC50) is 500 to 5000 nM in test [1] (Raji, Cell-MTS proliferation); more than 5 µM in test [2] (setting [8]); less than 500 nM in test [3] (HL-60, Cell-MTS proliferation); less than 500 nM in test [4] (setting [9]).
`CCS(=O)(=O)c1ccc(OC)c(-c2cn(C)c(=O)c3ccc(-c4cn[nH]c4)cc23)c1` [Example 210, 4-(5-ethylsulfonyl-2-methoxyphenyl)-2-methyl-6-(1H-pyrazol-4-yl) isoquinolin-1-one]: the IC50 was less than 500 nM in test [1] (Raji, Cell-MTS proliferation); more than 5 µM in test [2] (setting [8]); less than 500 nM in test [3] (HL-60, Cell-MTS proliferation); less than 500 nM in test [4] (setting [9]).
For `CCS(=O)(=O)c1ccc(OCC2CC2)c(-c2cn(C)c(=O)c3oc(C)cc23)c1` [Example 270, 4-[2-(cyclopropylmethoxy)-5-ethylsulfonylphenyl]-2,6-dimethylfuro[2,3-c]pyridine-7-one], the IC50 in test [1] (Raji, Cell-MTS proliferation) is less than 500 nM; in test [2] (setting [8]) it was 0.5 to 5 µM; in test [3] (HL-60, Cell-MTS proliferation), less than 500 nM; in test [4] (setting [9]), less than 500 nM.
For `CCOc1ccc(S(N)(=O)=O)cc1-c1ccc(=O)n(C)c1` [Example 117, 4-ethoxy-3-(1-methyl-6-oxopyridin-3-yl)benzenesulfonamide], the IC50 was 500 to 5000 nM in test [1] (setting [5]), more than 5 µM in test [2] (setting [6]), 500 to 5000 nM in test [3] (setting [7]) and less than 500 nM in test [4] (class symbols A/B/C).
Turning to `Cn1cc(-c2nc(S(C)(=O)=O)ccc2OCC2CC2)c2ccc(F)cc2c1=O` [Example 201, 4-[3-(cyclopropylmethoxy)-6-methylsulfonylpyridin-2-yl]-7-fluoro-2-methylisoquinolin-1-one], the IC50 was less than 500 nM in test [1] (Raji, Cell-MTS proliferation); more than 5 µM in test [2] (setting [8]); less than 500 nM in test [3] (HL-60, Cell-MTS proliferation); less than 500 nM in test [4] (setting [9]).
